The values below come from US8999937B2, “Glucocorticoid induced leucine zipper mimetics as therapeutic agents in multiple sclerosis” (Indiana University Research and Technology Corporation, priority 2011, dated 2015).

Entries after “also recorded” stand apart in the source; their conditions may differ.

Data set [1] deals with PPD stimulated human CD4+ T cells. Briefly: Cytokine secretion by PPD-stimulated human CD4+ T cells (ELISA). It is filed as cell-based. Particulars: 24 h, complex with chariot peptide. On the procedure: Purified CD4+ T cells isolated from PBMC by magnetic cell separation (Miltenyi Biotech, Germany), were seeded with irradiated autologous PBMC (T cells depleted) as APC at 1:1.5 ratio in serum-free RPMI (with 5% penicillin/streptomycin), and stimulated with PPD (20 μm/ml) alone or in the presence of dexamethasone (100 μm/ml) or 20:1 M complex of chariot peptide with GILZ protein (0.7 μm/ml)/anti-human GILZ mAb (1 μm/ml)/anti-human p65 mAb (1 μm/ml)/control antibody (1 μm/ml). Supernatants collected at 24 hrs were assessed for cytokines including human IFN-γ, TNF-α, IL-12 p40 and IL-10 using BD OptEIA™ kits. Differences in the secretion of cytokines between the groups were determined by one way ANOVA followed by Tukey's post-hoc analysis (see FIG. 4).

For data set [2], the system named is activated p65 NF-κB subunit. As to the kind of experiment: NF-κB assay (TransAM): p65 DNA binding in nuclear extracts. It is filed as cell-based, mouse. Particulars: CD4+ LNC restimulated with PLP139-151, 24 h. On the procedure: Nuclear and cytoplasmic protein fractions of CD4+ T cells obtained using a nuclear extraction kit are assessed for NF-κB activation and p65 nuclear translocation using Trans^AM NF-κB kits (Active Motif, Carlsbad, Calif.). The effect of exogenous GILZ and GILZ mimetics on phosphorylation and proteolytic degradation of IκB proteins is determined by Western blot analysis of nuclear and cytoplasmic protein fractions from CD4+ T cells pretreated with GILZ/chariot peptide complex prior to stimulation.
5 μg of nuclear extracts isolated from PLP139-151 restimulated CD4+ cells from R-EAE mice were incubated in a 96-well plate coated with oligonucleotides containing the NF-κB consensus binding site. The activated NF-κB bound to DNA was detected by anti-p65 antibody followed by a peroxidase-coupled secondary antibody and substrate using the TransAM kit protocol (Active Motif).

A further data set relates to R-EAE in SJL/J mice. Briefly: Relapsing remitting EAE (R-EAE) in SJL/J mice, clinical score. The format is in vivo, mouse. On the procedure:
Relapsing remitting EAE is induced in 8-10-week old female SJL/J mice. The mice were immunized with 100 μg of PLP139-151 in PBS emulsified 1:1 in complete Freund's adjuvant supplemented with 200 μg of Mycobacterium tuberculosis H37RA (Difco Laboratories, Detroit, Mich.) distributed over four sites on the lateral hind flanks subcutaneously. Mice were injected with 100 ng of pertussis toxin (List Biological Laboratories, Campbell, Calif.) intraperitonealy on the day of immunization and 2 days later (Srinivasan et al., (2002) J Immunol, 169(4):2180-8).
As opposed to the B10.PL mice which often develop monophasic EAE, PLP139-151 immunized SJL/J mice develop relapsing remitting form of EAE (R-EAE) (Dudhgaonkar et al. (2009) J Immunol, 183(11):7505-13). Groups of SJL/J mice were induced EAE as described above. Animals were observed daily for clinical signs and scored as follows: 0, no clinical signs; 1, limp tail or waddling gait with tail tonicity; 2, waddling gait with limp tail (ataxia); 2.5, ataxia with partial paralysis of one limb; 3, partial hind-limb paralysis; 3.5, full paralysis of one limb with partial paralysis of the second limb; 4, full paralysis of two limbs; 4.5 moribund; and 5, death (1, 8). […] A group of mice received the GILZ peptide:Pep-1 complex on day 12 post-immunization. Groups of mice treated with PBS (vehicle) or Pep-1 alone were included as control.
A group of mice received the GILZ-P•Pep-1 complex 12 days post-immunization. rh-GILZ was used to evaluate the effect in R-EAE.

The next data set can be described thus: Circular dichroism. The format is physicochemical. On the procedure: CD measurements can be recorded on a JASCO model, J-710 spectropolarimeter, (Jasco Inc, Easton, Md.) as described previously. The samples can be prepared by dissolving lyophilized GILZ peptide or control peptides at 100 μM concentration in citrate buffer (1 mM sodium citrate, 1 mM sodium borate, 1 mM sodium phosphate, 15 mM NaCl) with pH adjusted at 7.0. CD spectra can be collected using a 1 cm path-length quartz cuvette at 50° C. or 90° C. in the 190- to 270-nm wavelength range with a 0.5 nm resolution and a scan rate of 200 nm/min. Reported spectra can represent the unsmoothed averages of 30 scans. Each spectrum can be measured three times with individually prepared solutions. Raw CD signals (in millidegrees) can be converted to mean residue molar ellipticity (θ) in deg cm^2/dmol using the formula [θ] MRW 5 [θ]obs/101cn, where θ obs is the observed ellipticity, 1 is the pathlength in centimeters, c is the molar concentration of peptide, and n is the number of residues in the peptide. To determine 0% PPII helical content CD spectra can be recorded with GILZ-peptide dissolved in 5M CaCl2.

The next data set has as its target T1, p65ΔC14 (Homo sapiens, UniProt Q04206).
T1 construct: purchased Active Motif, Carlsbad, Calif
As to the kind of experiment: GILZ binding ELISA with partial length p65. Particulars: detected with anti-p65 mAb. A general note: In an ELISA, binding on a coated surface is turned into a signal by an enzyme label.

Data set [3] addresses T2, recombinant human p65 protein (r-p65) (Homo sapiens, UniProt Q04206).
T2 construct: control-P at varying concentrations was probed with full-length r-p65-DDK; purchased OriGene Technologies Inc., Rockville, Md
Briefly: GILZ:p65 direct binding and kinetics by modified ELISA.
Method: To detect direct interaction, ELISA plates were coated with increasing concentrations of the GILZ protein and probed with increasing concentrations of the p65 protein followed by detection with anti-human GILZ mAb. To detect binding of cellular GILZ and p65, ELISA plates were coated with the p65 protein (20 ng), and probed with the cytoplasmic fraction from T cells. Binding of the plate bound p65 with the cytoplasmic GILZ protein was detected with anti-human GILZ mAb. Alternatively, wells coated with the GILZ-GST protein (20 ng) were probed with the nuclear fractions from T cells and the GILZ:nuclear p65 binding was detected with anti-human p65 mAb. The bound complex was detected with TNB at absorbance of 450 nm.
(§1) Binding of the plate-bound r-p65 with cytoplasmic GILZ and the plate-bound GILZ with nuclear p65 was detected with anti-GILZ mAb or anti-p65 mAb, respectively, followed by trinitrobenzene substrate. […] Absorbance at 650 nm was measured between 0 and 300 s with a mixing time of 0.30 s and a 5-s interval between readings.

[4] abbreviates: Example 1, entire period of observation.
[5] abbreviates: Example 1, i.p. on day 0 with Pep-1, peptides 500 μg, r-GILZ 2 ng, n=4/group.
Where [6] appears, read: Example 2, single i.p. dose on day 0 with Pep-1, peptides 500 μg, r-GILZ 2 ng, n=9/group.

T2 sequence (Q04206 whole entry): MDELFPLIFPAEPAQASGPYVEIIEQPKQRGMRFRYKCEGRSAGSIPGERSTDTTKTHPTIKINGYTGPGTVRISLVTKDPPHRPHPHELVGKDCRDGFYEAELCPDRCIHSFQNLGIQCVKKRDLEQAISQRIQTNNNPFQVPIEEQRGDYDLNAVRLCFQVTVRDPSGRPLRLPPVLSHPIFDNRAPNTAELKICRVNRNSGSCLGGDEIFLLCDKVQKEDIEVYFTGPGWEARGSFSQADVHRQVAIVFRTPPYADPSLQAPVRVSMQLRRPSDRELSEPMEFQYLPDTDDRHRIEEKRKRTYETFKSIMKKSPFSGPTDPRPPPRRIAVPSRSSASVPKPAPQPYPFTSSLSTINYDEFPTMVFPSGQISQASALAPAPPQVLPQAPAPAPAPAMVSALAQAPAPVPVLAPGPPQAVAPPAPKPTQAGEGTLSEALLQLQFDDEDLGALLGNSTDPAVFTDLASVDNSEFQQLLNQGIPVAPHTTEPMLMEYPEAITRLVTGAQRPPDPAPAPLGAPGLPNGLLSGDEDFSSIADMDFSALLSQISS
T1 sequence (Q04206 1-537 limits assumed, stated change not applied): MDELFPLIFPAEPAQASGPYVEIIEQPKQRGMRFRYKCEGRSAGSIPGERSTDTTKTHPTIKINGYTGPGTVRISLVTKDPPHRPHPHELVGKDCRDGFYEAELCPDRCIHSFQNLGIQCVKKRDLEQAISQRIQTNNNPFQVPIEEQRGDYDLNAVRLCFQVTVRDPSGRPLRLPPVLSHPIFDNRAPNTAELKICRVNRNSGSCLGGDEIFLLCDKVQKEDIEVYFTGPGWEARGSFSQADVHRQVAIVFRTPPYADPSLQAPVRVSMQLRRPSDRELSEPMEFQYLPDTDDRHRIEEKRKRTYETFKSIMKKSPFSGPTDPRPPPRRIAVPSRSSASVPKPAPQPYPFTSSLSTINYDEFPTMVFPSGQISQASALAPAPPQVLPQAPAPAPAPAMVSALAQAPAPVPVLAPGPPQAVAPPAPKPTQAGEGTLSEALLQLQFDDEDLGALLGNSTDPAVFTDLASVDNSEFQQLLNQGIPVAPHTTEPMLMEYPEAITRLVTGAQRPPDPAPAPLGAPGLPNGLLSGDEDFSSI
Method for p65ΔC14: as §1

“r-GILZ: recombinant glucocorticoid induced leucine zipper protein (Abnova; OriGene with C-terminal DDK)”: in data set [1], the IL-10 secretion result was “significantly elevated”, the “secretion of IFN-γ” value is reported as “significantly reduced” and the “secretion of IL-12” value was “significantly reduced”. In addition, the “p65-specific DNA binding activity in nuclear extracts” value in data set [2] was “significantly decreased”. The “average clinical score per day, in words” value with R-EAE in SJL/J mice (Example 1, day 0/day 12 treatment vs control groups) is reported as “significantly reduced scores; also recorded: significantly lower”. In the data set on R-EAE in SJL/J mice (setting [4]), the “clinical relapse after initial remission” value is reported as “exhibited no relapse”. Moreover, the “mean clinical score (severity of clinical disease)” value in the data set on R-EAE in SJL/J mice (setting [5]) was 0.17+/−0.14. Also, in the data set with R-EAE in SJL/J mice (Example 2), the “clinical relapse after initial remission” value is “exhibited minimal relapse”. The “mean total clinical score” value in the data set on R-EAE in SJL/J mice (setting [6]) amounted to 7.13±2.8. Moreover, in the data set on R-EAE in SJL/J mice (Example 2, vs control groups), the “average clinical score per day, in words” value is “significantly lower”.

For the substance Ac-CLSPEEPAPESPQVPEAPGGSAV-NH2 [GILZ-P], the “mean residue molar ellipticity θ, maximum at 238 nm” value in “Circular dichroism” (50° C.) is listed as 1.12×10^3 deg cm^2 dmol^−1. The “mean residue molar ellipticity θ, minimum at 200 nm” value in the data set “Circular dichroism” (50° C.) is listed as −20.03×10^3 deg·cm^2/dmol. In addition, the “mean residue molar ellipticity θ @ 204 nM” value in the data set “Circular dichroism” (90° C.) is −11.37×10^3 deg cm^2/dmol. Further, in “Circular dichroism” (in 5M CaCl2), the “mean residue ellipticity minimum at 205 nM” value was −8.84×10^3 deg cm^2/dmol. In addition, the “p65-specific DNA binding activity in nuclear extracts” value in data set [2] was “significantly decreased”. The “absorbance of plate-bound agent probed with p65ΔC14” value at p65ΔC14 was “Absorbance over background was not observed”. Further, the “mean clinical score (severity of clinical disease)” value in the data set with R-EAE in SJL/J mice (Example 1, GILZ peptide 500 μg i.p. on day 12 post-induction) was 1.78+/−1.01; in the data set on R-EAE in SJL/J mice (setting [5]), 0.56+/−0.21. In addition, the “average clinical score per day, in words” value in the data set with R-EAE in SJL/J mice (Example 1, day 0/day 12 treatment vs control groups, listed as GILZ peptide) is “significantly reduced scores”; with R-EAE in SJL/J mice (Example 1, day 0/day 12 treatment vs control groups, listed as GILZ-peptide), “significantly lower”; with R-EAE in SJL/J mice (Example 2, vs control groups) it was “significantly lower”. The “clinical relapse after initial remission” value in the data set on R-EAE in SJL/J mice (setting [4]) was “exhibited no relapse”; with R-EAE in SJL/J mice (Example 2), “exhibited minimal relapse”. For the same substance, the “mean total clinical score” value in the data set with R-EAE in SJL/J mice (Example 2, Pep-1•GILZ-P single dose on day 12) was 15.75±4.85; in the data set with R-EAE in SJL/J mice (setting [6]), 2.25±0.72. Moreover, the “time at which maximum absorbance was reached in binding with r-p65” value in data set [3] came to 38 s. For the same substance, the “adjusted velocity of the interaction with r-p65” value in data set [3] (at 1:4 molar concentrations) came to 25 s⁻¹. Besides, the “p65 binding (absorbance) of plate-bound agent probed with full-length r-p65” value in data set [3] (varying coating concentrations, 40 μM r-p65) is reported as “decreased with decreasing concentrations”.
